Assay [1] deals with BioEngineered Neuronal Organoids (BENOs). The assay can be described thus: Multi-electrode array (MEA) recording of BENO network activity. In kind it is cell-based, human. Particulars: for Burst Frequency (Hz) / Interspike Interval in a burst / Network Burst (NB) Frequency / Number of Active Electrodes / Weighted Mean Firing Rate (Hz) / Burst Frequency (Hz), effect vs reference BENO / Interspike Interval in a burst (s), effect vs reference BENO / Network Burst (NB) Frequency, effect vs reference BENO / Number of Active Electrodes, effect vs reference BENO / Weighted Mean Firing Rate (Hz), effect vs reference BENO: CNQX 15 μM; for Burst frequency, change in words / Weighted mean firing rate, change in words: text and figure legend. The text has this:
BioEngineered Neuronal Organoids (BENOs) were generated in line with the BENO generation protocol provided in Zafeiriou et al. (Nature Communications, 2020, 11:3791, https://doi.org/10.1038/s41467-020-17521-w).
The method used for this illustrative example was a multi-electrode array (MEA) recording. In particular, six-well plates with 64 platinum microelectrodes arrays per well (0.04 MQ/microelectrode, 30 μm microelectrode diameter, 200 μm spacing) were coated with Matrigel™ 1:120 diluted in PBS for 1 h at room temperature prior seeding. One or two slices (thickness: 300 μm) were placed into a MEA well and immobilized by a concentrically coiled tungsten ring. 10-15 min recordings/2 h were performed every other day for up to 60 days using a Maestro pro MEA system (Axion Biosystems). Data recordings were automatically scheduled with the Axion Software (AxIS Navigator) using the manufacturer's Spontaneous Neural Configuration. Data analysis was performed using the manufacturer's standalone tools, Neural Metric Tool, and AxIS Metric Plotting Tool (Axion Biosystems). […] Spike bursts were identified using an ISI threshold requiring a minimum number of five spikes with a maximum ISI of 100 ms. Network Bursts (NB) were identified by an envelope algorithm with a threshold of 1.25, minimum IBI interval of 100 ms, 75% burst inclusion with a minimum of 10% active electrodes.

The test system of assay [2] is Engineered connective tissues (ECT). Kind of assay: ECT stiffness (Young's modulus) by ultimate tensile testing. It is filed as cell-based, human. As to conditions: 5 ng/ml TGF-β1, day 10 of the drug effect testing phase (absolute day 13), 8 replicates. As to the method:
Reference ECT were generated and treated similar as described herein in Example 1. In contrast to the pole deflection analysis disclosed in Example 1 herein, 8 ECT were harvested for the ultimate tensile testing at the moment when the plateau was reached and before a drug solvent was applied with or without TGF-β1. Residual ECT were cultured for further 10 days. Then, macroscopic images were taken from the ECT on the poles to estimate their cross-sectional areas based on the observed ECT thicknesses. Ultimate tensile testing was performed with a dynamic mechanical analyzer (DMA). Therefore, ECT were loaded onto two hooks clamped to a DMA in a 37° C. tempered organ bath filled with PBS. Then, uniaxial stretch at a constant linear rate of approximately 1% (0.03 mm/s) was applied until the ECT ruptured. The recorded force traces were converted into stress-strain curves. The Young's modulus representing the stiffness of the ECT was analyzed by determining the slope of the linear part of curve within the elastic region (FIG. 3A). All measurements were performed in 8 replicates. […]

For assay [3] the test system is unchanged. The assay can be described thus: ECT contraction by pole deflection analysis (reference ECT +/- TGF-β1). As to conditions: 5 ng/ml TGF-β1 applied at day 4, day 10 of the drug effect testing phase (absolute day 13), 6 technical replicates. In kind it is cell-based, human. An excerpt:
The general experimental procedure was identical for all used cells, including primary fibroblasts and iPSC-StC. Supporting information in view of the ECT model, in particular its generation, may also be found in Santos et al. (2021, Fibroblast Derived Human Engineered Connective Tissue for Screening Applications. J. Vis. Exp. e62700, doi: 10.3791/62700, PMID: 34487119), Santos et al. (2022, Using different geometries to modulate the cardiac fibroblast phenotype and the biomechanical properties of engineered connective tissues. Biomater Adv. 139:213041, PMID: 35909053), and EP20188364. In particular, acid solubilized, collagen type 1 was mixed 1:1 with 2× DMEM containing 20% fetal calf serum and antibiotics. […]
Pole deflection measurement and platforms are well-established in the art, cf. e.g. WO2017/207431 (also granted as DE 10 2016 110 328 B3). […] Pole deflection as a function of ECT compaction was calculated as follows: 100×(pole distanceday 0-pole distanceday x)/pole distanceday 0.
Reference ECT were analyzed, which were treated with a drug solvent in absence or presence of TGF-β1, with TGF-β1 application serving as additional reference with respect to pro-fibrotic drug characterization. […]

A short description of assay [4]: Pirfenidone IC50 in vitro.
The mark [5] stands for this setting: BENO day 50 to day 60, 10 min treatment, PIC 58 μM, 4 tissues.
Where [6] appears, read: BENO day 60, 10 min treatment, PIC 58 μM, threshold 2× SD.
The mark [7] stands for this setting: BENO day 60, treated vs reference.
[8] abbreviates: BENO day 60, treated vs reference, listed as Picrotoxin.

Converted amounts (≈) assume the structure as drawn. “Also recorded” adds a separate entry of the source.

The IC50 is the concentration at which inhibition is half-maximal. Low values mean inhibition by little substance, high ones a need for much substance.

With `C=C(C)[C@@H]1[C@H]2OC(=O)[C@@H]1[C@]1(O)C[C@H]3OC34C(=O)O[C@H]2[C@@]41C.CC(C)(O)[C@@H]1[C@H]2OC(=O)[C@@H]1[C@]1(O)C[C@H]3OC34C(=O)O[C@H]2[C@@]41C` (stereo partly shown) [PIC, Picrotoxin], in assay [1] (setting [5]), the “Burst Frequency (Hz)” value was 0.2 Hz, the “Interspike Interval in a burst” value is reported as 0.02 s, the “Network Burst (NB) Frequency” value stood at 0.09 and the “Number of Active Electrodes” value worked out at 23. Also, in assay [1] (setting [5]), the “Weighted Mean Firing Rate (Hz)” value was determined as 4.7 Hz, the “Interspike Interval in a NB” value is listed as 0.002 s, the “NB Duration” value stood at 1.4 ± 0.4 s and the NB percentage was determined as 43 ± 42. Also, in assay [1] (BENO day 60), the “Spontaneous activity, change in words” value is on record as “increased”. Further, in assay [1] (setting [6]), the “Burst Frequency (Hz), effect vs reference BENO” value was “↑ (>2SD increase)”; the “Interspike Interval in a burst (s), effect vs reference BENO” value is given as “↔ (<2SD change)”; the “Network Burst (NB) Frequency, effect vs reference BENO” value is given as “↑ (>2SD increase)”; the “Number of Active Electrodes, effect vs reference BENO” value is given as “↔ (<2SD change)”. Besides, in assay [1] (setting [6]), the “Weighted Mean Firing Rate (Hz), effect vs reference BENO” value is listed as “↑ (>2SD increase)”; the “Interspike Interval in a NB (s), effect vs reference BENO” value was “↔ (<2SD change)”; the “NB Duration (s), effect vs reference BENO” value is reported as “↑ (>2SD increase)”; the “NB percentage, effect vs reference BENO” value is recorded as “↔ (<2SD change)”. Also, in assay [1] (setting [7]), the “Network burst duration (network burst complexity), change in words” value is on record as “decreased”; the “Network burst frequency, change in words” value is “increased”; the “Burst frequency, change in words” value is recorded as “increase”; the “Weighted mean firing rate, change in words” value is recorded as “increase”. In assay [1] (setting [8]), the “Burst frequency, change in words” value was “increases” and the “Weighted mean firing rate, change in words” value is on record as “increased”.

With “TGF-B1: pro-fibrotic cytokine applied at 5 ng/ml to reference ECT”, the “Young's modulus (kPa)” value in assay [2] is on record as 76.4 kPa. For the same compound, the “Contraction (%)” value in assay [3] is given as 39.4%.

In assay [4], `Cc1ccc(=O)n(-c2ccccc2)c1` [Pirfenidone] displayed an IC50 of 430 µg/mL (≈ 2320 µM).

For the compound `N#Cc1cc2[nH]c(=O)c(=O)[nH]c2cc1[N+](=O)[O-]` [CNQX, Cyanquixalin], in assay [1] (setting [5]), the “Burst Frequency (Hz)” value amounted to 0.02 Hz, the “Interspike Interval in a burst” value amounted to 0.03 s, the “Network Burst (NB) Frequency” value was determined as 0 and the “Number of Active Electrodes” value was found to be 2. Moreover, the “Weighted Mean Firing Rate (Hz)” value in assay [1] (setting [5]) was 0.6 Hz. For the same compound, in assay [1] (setting [6]), the “Burst Frequency (Hz), effect vs reference BENO” value is reported as “↔ (<2SD change)”; the “Interspike Interval in a burst (s), effect vs reference BENO” value is on record as “↑ (>2SD increase)”; the “Network Burst (NB) Frequency, effect vs reference BENO” value is on record as “↓ (>2SD decrease)”; the “Number of Active Electrodes, effect vs reference BENO” value is given as “↓ (>2SD decrease)”. Besides, in assay [1] (setting [6]), the “Weighted Mean Firing Rate (Hz), effect vs reference BENO” value is recorded as “↓ (>2SD decrease)”. The “Interspike interval in a burst, change in words” value in assay [1] (BENO day 60, after treatment) is on record as “higher”. Besides, in assay [1] (setting [7]), the “Network burst frequency, change in words” value is recorded as “decrease”; the “Burst frequency, change in words” value was “reduced to the predetermined threshold of 2× SD, though not exceeding it; also recorded: decrease; also recorded: reduced”; the “Weighted mean firing rate, change in words” value is “decrease; also recorded: reduced”.

The values above are taken from patent US20260202397A1, “POTENCY ASSAY FOR PHARMACEUTICAL PRODUCTS” (REPAIRON MUSCLE UG, priority 2022, published 2026).
